Measurements published in US20250171753A1, “PEPTIDE AND USE THEREOF IN THE PREVENTION OF THERAPY-RELATED LEUKEMIA” (UNIVERSITÄT ULM, priority 2022, published 2025).
Where no end group is shown, it is not given here.

How the values were obtained:
[1] = tested on: K562/MLL cells; experiment: Cell survival of K562/MLL cells by FSC/SSC gating in FACS; assay type: cell-based; conditions: for cell survival / effect of peptide on cell survival after doxorubicin treatment: 2 μM doxorubicin 4 h; for cell survival: 72 h; for effect of peptide on cell survival after doxorubicin treatment: K562/MLL nucleofected with 0-600 μg peptide per 1×10^6 cells; for toxicity of the peptide in K562/MLL cells: K562/MLL nucleofected with different peptide concentrations, 2 μM doxorubicin; for toxic effects toward leukemia cells (summary statement): leukemia cells after doxorubicin treatment
Method: (§1) K562/MLL cells were divided 1:2 before the start of the experiment and transfected with the plasmid (2×10^6 cells) or nucleofected with the peptide (1×10^6 cells) on the second day. After 24 h, the cells were then treated with 2 μM doxorubicin (Uniklinik Ulm, Germany) and after 4 h incubation, the cells were centrifuged, the supernatant discarded and the cells taken up in 2 ml PBS (Gibco/Thermo Fisher Scientific). After centrifugation again, the supernatant was discarded and the cells were seeded in 2 ml of new culture medium for 72 h.
Use of the fluorescence-based assay system for recombination measurements with K562/MLL or HeLa/MLL cells with chromosomally integrated plasmid pHR-EGFP/3′EGFP-MLLbcr.fwd is described in detail in Ireno et al. 2014 and Gole et al. 2015, respectively. For the acquisition of recombination data, cells were harvested, pelleted, resuspended in PBS and then re-sedimented. The cell pellets were stored on ice and resuspended in PBS (mixed with 0.2% EDTA) only shortly before FACS measurement. This suspension was transferred to FACS tubes and the fluorescence of the cells was detected on the FACSCalibur™ (BD Biosciences, San Jose, California, USA). To achieve a separation between living and dead cells, the cell clouds were plotted linearly against FSC/SSC orientation in a dot plot diagram. Depending on cell size and granularity, the living cells were distinguished from cell debris and dead cells by placing a marker (gate) around the “living cell cloud”. Subsequently, the selected cell population was separated in another dot-plot diagram with FL-1/FL-2 alignment depending on their fluorescence properties (FL-1 for green fluorescence, FL-2 for orange intrinsic fluorescence). Depending on the approach, 150,000 to 1,000,000 living cells were analyzed. Recombination frequencies were determined from the proportion of green fluorescent cells in the living cell population.
K562/MLL cells were electroporated with these expression plasmids for the different Ku80 variants or the empty vector (control) and 24 h later treated for 4 h with the chemotherapeutic agent doxorubicin (2 μM). After washing the cells, they were cultured in fresh medium for a further 72 h. The subsequent detection of green fluorescent cells for analysis of recombination frequencies was achieved by FACS using a diagonal gate in a FL-1/FL-2 dot plot diagram. Living cells were pre-selected by FSC/SSC gating to distinguish between EGFP-positive and -negative within the living cells.
The peptides were introduced into K562/MLL cells by Nucleofector™ technology as described above. The cells were nucleofected with 0-600 μg peptide per 1×10^6 cells and treated with 2 μM doxorubicin for 4 h after 24 h. After washing, the cells were cultured for another 72 h in fresh medium. […] Subsequently, recombination frequencies were determined.
Cell survival was determined in parallel with the recombination measurements.

[2] = tested on: HeLa/MLL cells; experiment: Cell survival of HeLa/MLL cells by FSC/SSC gating in FACS; assay type: cell-based, human; conditions: HeLa/MLL nucleofected with peptide; 0.5 μM doxorubicin 4 h; 72 h
Method: HeLa/MLL cells (0.5×10^6) were nucleofected with the peptide on the first day and split into three 6-wells for further cultivation. On the second day, the cells were treated with 0.5 μM doxorubicin for 4 h. […]. Afterwards, the medium was removed, the cells were washed with 2 ml PBS and 2 ml new medium was added. For FACS measurements, the cells were washed with PBS after 72 h of culture, 200 μl of trypsin (PAN Biotech, Aidenbach, Germany) was added and the reaction was stopped with medium. Genomic DNA was isolated without recultivation after doxorubicin treatment.
Use of the fluorescence-based assay system for recombination measurements with K562/MLL or HeLa/MLL cells with chromosomally integrated plasmid pHR-EGFP/3′EGFP-MLLbcr.fwd is described in detail in Ireno et al. 2014 and Gole et al. 2015, respectively. […] This suspension was transferred to FACS tubes and the fluorescence of the cells was detected on the FACSCalibur™ (BD Biosciences, San Jose, California, USA). […] Subsequently, the selected cell population was separated in another dot-plot diagram with FL-1/FL-2 alignment depending on their fluorescence properties (FL-1 for green fluorescence, FL-2 for orange intrinsic fluorescence). Depending on the approach, 150,000 to 1,000,000 living cells were analyzed. […]

[3] = tested on: MLLbcr rearrangements in K562/MLL cells; experiment: Fluorescence-based (EGFP reconstitution) recombination assay for MLLbcr rearrangements in K562/MLL cells after doxorubicin; assay type: cell-based, human; conditions: expression plasmid electroporated into K562/MLL; 2 μM doxorubicin 4 h after 24 h; 72 h culture; vs empty vector control set to 100%
Method: as §1
Use of the fluorescence-based assay system for recombination measurements with K562/MLL or HeLa/MLL cells with chromosomally integrated plasmid pHR-EGFP/3′EGFP-MLLbcr.fwd is described in detail in Ireno et al. 2014 and Gole et al. 2015, respectively. For the acquisition of recombination data, cells were harvested, pelleted, resuspended in PBS and then re-sedimented. The cell pellets were stored on ice and resuspended in PBS (mixed with 0.2% EDTA) only shortly before FACS measurement. This suspension was transferred to FACS tubes and the fluorescence of the cells was detected on the FACSCalibur™ (BD Biosciences, San Jose, California, USA). To achieve a separation between living and dead cells, the cell clouds were plotted linearly against FSC/SSC orientation in a dot plot diagram.

[4] = K562/MLL nucleofected with 100 μg peptide
[5] = K562/MLL nucleofected with 50 μg peptide

Molecule: VDSTTIEKSIAEVAEEQESILKKVAGGT [scrambled peptide, reference compound]
- cell survival [1, 4]: not affected

Molecule: COc1cccc2c1C(=O)c1c(O)c3c(c(O)c1C2=O)C[C@@](O)(C(=O)CO)C[C@@H]3O[C@H]1C[C@H](N)[C@H](O)[C@H](C)O1 [doxorubicin, reference compound]
- cell survival after doxorubicin treatment ([1]; human, 4 h, 2 μM): 70-80%

Molecule: ITKEEASGSSVTAEEAKKFLAG [Ku1]
- effect of peptide on cell survival after doxorubicin treatment [1]: did not affect cell survival

Molecule: RVLVKQKKASFEEASNQLINHIEQFL [Ku2]
- reduction of cell survival after doxorubicin treatment to ([1]; K562/MLL nucleofected with 200-400 μg peptide): ≥ half
- toxicity of the peptide in K562/MLL cells [1]: caused toxicities

Molecule: CC[C@H](C)[C@H](NC(=O)CNC(=O)[C@H](CC(=O)O)NC(=O)[C@H](CCC(N)=O)NC(=O)[C@@H](NC(=O)[C@@H](NC(=O)[C@@H](NC(=O)[C@@H](N)CCC(=O)O)[C@@H](C)CC)C(C)C)C(C)C)C(=O)N[C@H](C(=O)N[C@@H](CC(C)C)C(=O)N[C@H](C(=O)N[C@H](C(=O)N[C@@H](CCCCN)C(=O)N[C@@H](CCC(=O)O)C(=O)N[C@@H](CCC(=O)O)C(=O)N[C@@H](C)C(=O)N[C@@H](CO)C(=O)NCC(=O)N[C@@H](CO)C(=O)N[C@@H](CO)C(=O)N[C@H](C(=O)N[C@H](C(=O)N[C@@H](C)C(=O)N[C@@H](CCC(=O)O)C(=O)N[C@@H](CCC(=O)O)C(=O)N[C@@H](C)C(=O)N[C@@H](CCCCN)C(=O)N[C@@H](CCCCN)C(=O)O)[C@@H](C)O)C(C)C)[C@@H](C)O)[C@@H](C)CC)[C@@H](C)O [Ku3]
- effect of peptide on cell survival after doxorubicin treatment [1]: not affected
- cell survival [1, 5]: not affected
- cell survival [1, 4]: not affected
- toxic effects toward leukemia cells (summary statement) [1]: without exhibiting toxic effects
- effect on cell survival [2]: without affecting cell survival

Molecule: ITKEEASGSSVTAEEAKKFLA [SEQ ID No. 4]
- toxic effects toward leukemia cells (summary statement) [1]: without exhibiting toxic effects

Molecule: EIVVQDGITLITKAEASGSSVTAEEAKK [Ku3 mut1, reference compound]
- cell survival [1, 5]: not affected

Molecule: ASFEEASNQLINHIEQFLDTNETPYFMKSI [Ku4]
- toxicity of the peptide in K562/MLL cells [1]: caused toxicities
- reduction of cell survival after doxorubicin treatment to ([1]; K562/MLL nucleofected with ≥300 μg peptide): ≥ half

B1: Ku80ct: Ku80 amino acids 592-709 fused behind the amino acids PTAKKLK of the nuclear localization signal, expressed from plasmid (protein, UniProt P13010 592-709, looked up, fragment)
chain: VNPAENFRVLVKQKKASFEEASNQLINHIEQFLDTNETPYFMKSIDCIRAFREEAIKFSEEQRFNNFLKALQEKVEIKQLNHFWEIVVQDGITLITKEEASGSSVTAEEAKKFLAPKD
modifications: N-terminal NLS peptide PTAKKLK
notes: Ku80 amino acids 592-709 fused behind the amino acids PTAKKLK of the nuclear localization signal, expressed from plasmid
- MLLbcr rearrangements (recombination frequency) lowered by [3]: 45%
